Laboratory results reported in the supplement of paper PMC9663587.

What was measured:
Experiment in all cases: area over the GR curve, 72 h; higher = more effect;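 further: Dye Drop or Deep Dye Drop imaging of viable cells in 384-well plates (Hoechst nuclei, LIVE/DEAD dye), nine half-log doses, GR normalized to DMSO controls and time-zero plates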
MDAMB157 = test system: MDAMB157
HCC1428 = test system: HCC1428
HCC1500 = test system: HCC1500
PDX1206 = test system: PDX1206
MCF10A (GM) = test system: MCF10A (GM)

Row | SMILES | area over the GR curve (MDAMB157) | area over the GR curve (HCC1428) | area over the GR curve (HCC1500) | area over the GR curve (MDAMB157; main component drawn) | area over the GR curve (HCC1428; main component drawn) | area over the GR curve (HCC1500; main component drawn) | area over the GR curve (PDX1206) | area over the GR curve (MCF10A (GM))
1 | CS(=O)(=O)N1CCN(Cc2cc3nc(-c4cccc5[nH]ncc45)nc(N4CCOCC4)c3s2)CC1 [Pictilisib/GDC0941] (max 10 µM) | 0.258 GR | 0.117 GR | 0.203 GR | – | – | – | – | –
2 | O=C1NC(=O)[C@@H](c2cn3c4c(cccc24)CCC3)[C@@H]1c1c[nH]c2ccccc12 [Tivantinib/ARQ197] (max 10 µM) | 0.388 GR | 0.345 GR | 0.491 GR | – | – | – | – | –
3 | Cc1c(N)nc([C@H](CC(N)=O)NC[C@H](N)C(N)=O)nc1C(=O)N[C@H](C(=O)N[C@H](C)[C@@H](O)[C@H](C)C(=O)N[C@H](C(=O)NCCc1nc(-c2nc(C(=O)NCCC[S+](C)C)cs2)cs1)[C@@H](C)O)[C@@H](OC1OC(CO)C(O)C(O)C1OC1OC(CO)C(O)C(OC(N)=O)C1O)c1cnc[nH]1 (stereo partly drawn) [Bleomycin] (max 10 µM) | – | – | – | 0.281 GR | 0.178 GR | 0.147 GR | – | –
4 | CO[C@H]1C[C@@H]2CC[C@@H](C)[C@@](O)(O2)C(=O)C(=O)N2CCCC[C@H]2C(=O)O[C@H]([C@H](C)C[C@@H]2CC[C@@H](OCCO)[C@H](OC)C2)CC(=O)[C@H](C)/C=C(\C)[C@@H](O)[C@@H](OC)C(=O)[C@H](C)C[C@H](C)/C=C/C=C/C=C/1C [Everolimus] (max 10 µM) | 0.394 GR | 0.519 GR | 1.26 GR | – | – | – | – | –
5 | CN1CC[C@H](c2c(O)cc(O)c3c(=O)cc(-c4ccccc4Cl)oc23)[C@H](O)C1 [Flavopiridol] (max 1 µM) | – | – | – | – | – | – | 0.458 GR | 0.316 GR
6 | CNCc1ccc(-c2[nH]c3cc(F)cc4c3c2CCNC4=O)cc1 [Rucaparib] (max 10 µM) | – | – | – | – | – | – | 0.114 GR | 0.0455 GR
7 | CC[C@@H]1C(=O)N(C)c2cnc(Nc3ccc(C(=O)N[C@H]4CC[C@H](N5CCN(CC6CC6)CC5)CC4)cc3OC)nc2N1C(C)C [Volasertib/BI6727] (max 1 µM) | 0.851 GR | 0.395 GR | 0.297 GR | – | – | – | – | –
8 | CC1(N)CCN(c2cnc(-c3cccc(Cl)c3Cl)c(N)n2)CC1 [SHP099] (max 10 µM) | – | – | – | – | – | – | 0.0699 GR | 0.0203 GR
9 | CNc1nc(-c2ccc3c(N)n[nH]c3c2)cc(N2C[C@@H](C(=O)NC3CCCCC3)CC[C@H]2C)n1 (max 10 µM) | – | – | – | – | – | – | 0.327 GR | 0.0279 GR
10 | CCc1cncnc1N1CCN(Cc2nc3ccc(C(F)(F)F)cc3[nH]2)CC1 (max 10 µM) | 0.119 GR | -0.0224 GR | 0.182 GR | – | – | – | – | –
11 | COc1cc2c(Oc3ccc4[nH]c(C)cc4c3F)ncnc2cc1OCCCN1CCCC1 [Cediranib/AZD2171] (max 10 µM) | 0.349 GR | 0.189 GR | 0.0909 GR | – | – | – | – | –
12 | CCc1cnn2c(NCc3ccc[n+]([O-])c3)cc(N3CCCC[C@H]3CCO)nc12 (max 1 µM) | 0.765 GR | 0.656 GR | 0.662 GR | – | – | – | – | –
13 | COc1cccc(OCCCN)c1-c1cc(Nc2cnc(C#N)cn2)n[nH]1 | – | – | – | – | – | – | 0.427 GR | 0.245 GR
14 | CC(C)n1nc(-c2ccc3oc(N)nc3c2)c2c(N)ncnc21 [INK128/MLN0128] (max 3.162 µM) | 0.514 GR | 0.648 GR | 1.23 GR | – | – | – | – | –
15 | N.N.[Cl][Pt][Cl] [Cisplatin] (max 10 µM) | 0.117 GR | 0.221 GR | 0.0866 GR | – | – | – | – | –
16 | Nc1cc(C(F)(F)F)c(-c2cc(N3CCOCC3)nc(N3CCOCC3)n2)cn1 [Buparlisib/NVP-BKM120] (max 10 µM) | 0.302 GR | 0.344 GR | 0.512 GR | – | – | – | – | –
17 | COc1cc2nccc(Oc3ccc(NC(=O)C4(C(=O)Nc5ccc(F)cc5)CC4)cc3)c2cc1OC [Cabozantinib] (max 10 µM) | 0.21 GR | 0.0108 GR | -0.0192 GR | – | – | – | – | –
18 | Cc1cc(C(C)Nc2ccccc2)c2nc(N3CCOCC3)cc(=O)n2c1 (stereo not drawn) [TGX221] (max 10 µM) | -0.005 GR | 0.0058 GR | 0.0613 GR | – | – | – | – | –
19 | CN(C)C/C=C/C(=O)Nc1ccc(C(=O)N2CCC[C@@H](Nc3ncc(Cl)c(-c4c[nH]c5ccccc45)n3)C2)cc1 [THZ531] (max 1 µM) | – | – | – | – | – | – | 0.407 GR | 0.134 GR
20 | CCC(=O)Nc1ccc(C(=O)Nc2ccc(Nc3ncc4c(n3)N(C)c3ccc(C)cc3C(=O)N4C)cc2)cc1 [FMF-03-145-1] | – | – | – | – | – | – | 0.946 GR | 0.376 GR

Row | SMILES | area over the GR curve (MDAMB157) | area over the GR curve (HCC1428) | area over the GR curve (HCC1500) | area over the GR curve (MDAMB157; main component drawn) | area over the GR curve (HCC1428; main component drawn) | area over the GR curve (HCC1500; main component drawn) | area over the GR curve (PDX1206) | area over the GR curve (MCF10A (GM))
21 | CC(=O)Nc1cccc(-n2c(=O)n(C3CC3)c(=O)c3c(Nc4ccc(I)cc4F)n(C)c(=O)c(C)c32)c1 (max 1 µM) | 0.301 GR | 0.0695 GR | 0.212 GR | – | – | – | – | –
22 | CCNC(=O)c1noc(-c2cc(C(C)C)c(O)cc2O)c1-c1ccc(CN2CCOCC2)cc1 [Luminespib/NVP-AUY922] (max 1 µM) | 0.615 GR | 0.637 GR | 0.546 GR | – | – | – | – | –
23 | CC[C@@]1(O)C(=O)OCc2c1cc1n(c2=O)Cc2cc3c(CN(C)C)c(O)ccc3nc2-1 [Topotecan] (max 10 µM) | 1.08 GR | 0.835 GR | 1.22 GR | – | – | – | – | –
24 | CC(=O)O[C@H]1C(=O)[C@@]2(C)[C@H]([C@H](OC(=O)c3ccccc3)[C@]3(O)C[C@H](OC(=O)[C@H](O)[C@@H](NC(=O)c4ccccc4)c4ccccc4)C(C)=C1C3(C)C)[C@]1(OC(C)=O)CO[C@@H]1C[C@@H]2O [Paclitaxel] (max 1 µM) | 0.946 GR | 0.507 GR | 0.609 GR | – | – | – | – | –
25 | CCN1CCN(Cc2ccc(Nc3ncc(F)c(-c4cc(F)c5nc(C)n(C(C)C)c5c4)n3)nc2)CC1 (max 10 µM) | 0.266 GR | 0.636 GR | 0.342 GR | – | – | – | – | –
26 | Cc1nc(Nc2ncc(C(=O)Nc3c(C)cccc3Cl)s2)cc(N2CCN(CCO)CC2)n1 [Dasatinib] (max 10 µM) | 0.518 GR | 0.256 GR | 0.925 GR | – | – | – | – | –
27 | COc1cccc2c1C(=O)c1c(O)c3c(c(O)c1C2=O)C[C@@](O)(C(=O)CO)C[C@@H]3O[C@H]1C[C@H](N)[C@H](O)[C@H](C)O1 [Doxorubicin] (max 3.162 µM) | 0.966 GR | 0.895 GR | 0.751 GR | – | – | – | – | –
28 | CC(=O)c1c(C)c2cnc(Nc3ccc(N4CCNCC4)cn3)nc2n(C2CCCC2)c1=O (max 3.162 µM) | -0.0037 GR | 0.314 GR | 0.11 GR | – | – | – | – | –
29 | Cc1nn(C)c(COc2ccc(N3CCN(S(=O)(=O)N(C)C)CC3)cc2)c1-c1cccc2c(CCCOc3cccc4ccccc34)c(C(=O)O)n(CCN3CCOCC3)c12 (max 10 µM) | 0.0057 GR | -0.0325 GR | -0.063 GR | – | – | – | – | –
30 | CN1CCN(CCOc2cc(OC3CCOCC3)c3c(Nc4c(Cl)ccc5c4OCO5)ncnc3c2)CC1 [Saracatinib/AZD0530] (max 10 µM) | 0.17 GR | 0.0609 GR | 0.433 GR | – | – | – | – | –
31 | Cc1cc(Nc2ncc(Cl)c(Nc3ccccc3S(=O)(=O)C(C)C)n2)c(OC(C)C)cc1C1CCNCC1 [Ceritinib/LDK378] (max 10 µM) | 0.46 GR | 0.295 GR | 0.274 GR | – | – | – | – | –
32 | CN(C)CC[C@H](CSc1ccccc1)Nc1ccc(S(=O)(=O)NC(=O)c2ccc(N3CCN(Cc4ccccc4-c4ccc(Cl)cc4)CC3)cc2)cc1[N+](=O)[O-] [ABT-737] (max 10 µM) | 0.0446 GR | 0.111 GR | 1.13 GR | – | – | – | – | –
33 | NC(=O)Nc1cc(-c2cccc(F)c2)sc1C(=O)N[C@H]1CCCNC1 [AZD7762] (max 10 µM) | 0.984 GR | 0.323 GR | 0.614 GR | – | – | – | – | –
34 | CC(C)NC[C@@H](C(=O)N1CCN(c2ncnc3c2[C@H](C)C[C@H]3O)CC1)c1ccc(Cl)cc1 [Ipatasertib/GDC0068] (max 10 µM) | 0.0813 GR | -0.0745 GR | -0.0881 GR | – | – | – | – | –
35 | Nc1ccc(-c2ccc3ncc4ccc(=O)n(-c5cccc(C(F)(F)F)c5)c4c3c2)cn1 [Torin2] (max 1 µM) | 0.41 GR | 0.439 GR | 0.888 GR | – | – | – | – | –
36 | Cc1nc(NC(=O)N2CCC[C@H]2C(N)=O)sc1-c1ccnc(C(C)(C)C(F)(F)F)c1 [Alpelisib/BYL719] (max 10 µM) | 0.101 GR | 0.0107 GR | -0.0097 GR | – | – | – | – | –
37 | O=C(CCCCCCC(=O)Nc1ccccc1)NO [Vorinostat] (max 10 µM) | 0.297 GR | 0.339 GR | 0.301 GR | – | – | – | – | –
38 | O=C(c1cc(Cc2n[nH]c(=O)c3ccccc23)ccc1F)N1CCN(C(=O)C2CC2)CC1 [Olaparib/AZD2281] (max 10 µM) | 0.115 GR | 0.323 GR | 0.0931 GR | – | – | – | – | –
39 | CCOc1cc2ncc(C#N)c(Nc3ccc(OCc4ccccn4)c(Cl)c3)c2cc1NC(=O)/C=C/CN(C)C [Neratinib/HKI272] (max 3.162 µM) | 0.191 GR | 0.101 GR | 0.165 GR | – | – | – | – | –
40 | Cc1nc(-c2cn3c(n2)-c2ccc(-c4cnn(C(C)(C)C(N)=O)c4)cc2OCC3)n(C(C)C)n1 [Taselisib/GDC0032] (max 10 µM) | 0.339 GR | 0.139 GR | 0.209 GR | – | – | – | – | –
